Reference: the supplement of paper PMC10307832

Tests used:
Experiment in all cases: relative viability (nuclei count vs DMSO), 5 days (fraction); higher = more cells survive
NCI-H1792 = system: NCI-H1792
Summary of the method: (§1)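 Relative viability is defined as nuclei in treated wells over nuclei in vehicle wells. Duplicate plates were run and medians reported. Lung cancer cell lines in 1536-well plates were dosed by pin tool one day after seeding, with one drug or with a fixed anchor-drug dose plus five library-drug doses (not always all listed) in √10 steps, and nuclei were counted after 5 days.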

LXF-289 = system: LXF-289
Summary of the method: as §1

NCI-H1355 = system: NCI-H1355
Summary of the method: as §1

NCI-H727 = system: NCI-H727
Summary of the method: as §1

SW 900 = system: SW 900
Summary of the method: as §1

NCI-H596 = system: NCI-H596
Summary of the method: as §1

NCI-H661 = system: NCI-H661
Summary of the method: as §1

NCI-H441 = system: NCI-H441
Summary of the method: as §1

LCLC-103H = system: LCLC-103H
Summary of the method: as §1

PC-14 = system: PC-14
Summary of the method: as §1

NCI-H460 = system: NCI-H460
Summary of the method: as §1

SK-MES-1 = system: SK-MES-1
Summary of the method: as §1

RERF-LC-KJ = system: RERF-LC-KJ
Summary of the method: as §1

NCI-H1755 = system: NCI-H1755
Summary of the method: as §1

NCI-H1915 = system: NCI-H1915
Summary of the method: as §1

NCI-H2170 = system: NCI-H2170
Summary of the method: as §1

NCI-H2347 = system: NCI-H2347
Summary of the method: as §1

NCI-H1563 = system: NCI-H1563
Summary of the method: as §1

NCI-H3122 = system: NCI-H3122
Summary of the method: as §1

NCI-H322M = system: NCI-H322M
Summary of the method: as §1

NCI-H1651 = system: NCI-H1651
Summary of the method: as §1

NCI-H650 = system: NCI-H650
Summary of the method: as §1

NCI-H520 = system: NCI-H520
Summary of the method: as §1

Oc1nc(-c2ccc(C(F)(F)F)cc2)nc2c1CSCC2 [XAV939] + N=C(N)NC(=N)NCCc1ccccc1 [Phenformin] (partner 250 µM)
relative viability (NCI-H1792; first compound 0.08 µM): 0.432 | relative viability (NCI-H1792; first compound 0.253 µM): 0.308 | relative viability (NCI-H1792; first compound 0.8 µM): 0.303 | relative viability (NCI-H1792; first compound 2.53 µM): 0.331 | relative viability (LXF-289; first compound 0.08 µM): 0.556 | relative viability (LXF-289; first compound 0.253 µM): 0.48 | relative viability (LXF-289; first compound 0.8 µM): 0.539 | relative viability (LXF-289; first compound 2.53 µM): 0.546 | relative viability (NCI-H1355; first compound 0.08 µM): 0.455 | relative viability (NCI-H1355; first compound 0.253 µM): 0.428 | relative viability (NCI-H1355; first compound 0.8 µM): 0.43 | relative viability (NCI-H1355; first compound 2.53 µM): 0.435 | relative viability (NCI-H727; first compound 0.08 µM): 0.732 | relative viability (NCI-H727; first compound 0.253 µM): 0.353 | relative viability (NCI-H727; first compound 0.8 µM): 0.635 | relative viability (NCI-H727; first compound 2.53 µM): 0.542 | relative viability (SW 900; first compound 0.08 µM): 0.657 | relative viability (SW 900; first compound 0.253 µM): 0.49 | relative viability (SW 900; first compound 0.8 µM): 0.537 | relative viability (SW 900; first compound 2.53 µM): 0.419 | relative viability (NCI-H596; first compound 0.08 µM): 0.699 | relative viability (NCI-H596; first compound 0.253 µM): 0.673 | relative viability (NCI-H596; first compound 0.8 µM): 0.764 | relative viability (NCI-H596; first compound 2.53 µM): 0.774 | relative viability (NCI-H661; first compound 0.08 µM): 0.277 | relative viability (NCI-H661; first compound 0.253 µM): 0.272 | relative viability (NCI-H661; first compound 0.8 µM): 0.281 | relative viability (NCI-H661; first compound 2.53 µM): 0.267 | relative viability (NCI-H441; first compound 0.08 µM): 0.856 | relative viability (NCI-H441; first compound 0.253 µM): 0.861 | relative viability (NCI-H441; first compound 0.8 µM): 1 | relative viability (NCI-H441; first compound 2.53 µM): 0.851 | relative viability (LCLC-103H; first compound 0.08 µM): 0.369 | relative viability (LCLC-103H; first compound 0.253 µM): 0.29 | relative viability (LCLC-103H; first compound 0.8 µM): 0.304 | relative viability (LCLC-103H; first compound 2.53 µM): 0.315 | relative viability (PC-14; first compound 0.08 µM): 0.69 | relative viability (PC-14; first compound 0.253 µM): 0.592 | relative viability (PC-14; first compound 0.8 µM): 0.629 | relative viability (PC-14; first compound 2.53 µM): 0.555 | relative viability (NCI-H460; first compound 0.08 µM): 0.526 | relative viability (NCI-H460; first compound 0.253 µM): 0.408 | relative viability (NCI-H460; first compound 0.8 µM): 0.53 | relative viability (NCI-H460; first compound 2.53 µM): 0.502 | relative viability (SK-MES-1; first compound 0.08 µM): 0.759 | relative viability (SK-MES-1; first compound 0.253 µM): 0.643 | relative viability (SK-MES-1; first compound 0.8 µM): 0.613 | relative viability (SK-MES-1; first compound 2.53 µM): 0.631 | relative viability (RERF-LC-KJ; first compound 0.08 µM): 0.485 | relative viability (RERF-LC-KJ; first compound 0.253 µM): 0.425 | relative viability (RERF-LC-KJ; first compound 0.8 µM): 0.442 | relative viability (RERF-LC-KJ; first compound 2.53 µM): 0.364 | relative viability (NCI-H1755; first compound 0.08 µM): 0.621 | relative viability (NCI-H1755; first compound 0.253 µM): 0.543 | relative viability (NCI-H1755; first compound 0.8 µM): 0.614 | relative viability (NCI-H1755; first compound 2.53 µM): 0.563 | relative viability (NCI-H1915; first compound 0.08 µM): 0.384 | relative viability (NCI-H1915; first compound 0.253 µM): 0.258 | relative viability (NCI-H1915; first compound 0.8 µM): 0.377 | relative viability (NCI-H1915; first compound 2.53 µM): 0.369 | relative viability (NCI-H2170; first compound 0.08 µM): 0.393 | relative viability (NCI-H2170; first compound 0.253 µM): 0.394 | relative viability (NCI-H2170; first compound 0.8 µM): 0.413 | relative viability (NCI-H2170; first compound 2.53 µM): 0.362 | relative viability (NCI-H2347; first compound 0.08 µM): 0.396 | relative viability (NCI-H2347; first compound 2.53 µM): 0.338 | relative viability (NCI-H1563; first compound 0.08 µM): 0.616 | relative viability (NCI-H1563; first compound 0.253 µM): 0.681 | relative viability (NCI-H1563; first compound 0.8 µM): 0.594 | relative viability (NCI-H1563; first compound 2.53 µM): 0.636 | relative viability (NCI-H3122; first compound 0.08 µM): 0.38 | relative viability (NCI-H3122; first compound 0.253 µM): 0.336 | relative viability (NCI-H3122; first compound 0.8 µM): 0.338 | relative viability (NCI-H3122; first compound 2.53 µM): 0.39 | relative viability (NCI-H322M; first compound 0.08 µM): 0.88 | relative viability (NCI-H322M; first compound 0.253 µM): 0.716 | relative viability (NCI-H322M; first compound 0.8 µM): 0.625 | relative viability (NCI-H322M; first compound 2.53 µM): 0.578 | relative viability (NCI-H1651; first compound 0.08 µM): 0.359 | relative viability (NCI-H1651; first compound 0.253 µM): 0.31 | relative viability (NCI-H1651; first compound 0.8 µM): 0.353 | relative viability (NCI-H1651; first compound 2.53 µM): 0.302 | relative viability (NCI-H650; first compound 0.08 µM): 0.474 | relative viability (NCI-H650; first compound 0.253 µM): 0.494 | relative viability (NCI-H650; first compound 0.8 µM): 0.439 | relative viability (NCI-H650; first compound 2.53 µM): 0.414 | relative viability (NCI-H520; first compound 0.08 µM): 0.58 | relative viability (NCI-H520; first compound 0.253 µM): 0.51 | relative viability (NCI-H520; first compound 0.8 µM): 0.526 | relative viability (NCI-H520; first compound 2.53 µM): 0.401
